Here are results for one compound from patent US12522564B2, “Polymorphs of elafibranor” (GENFIT, priority 2021, dated 2026).

Data set [1] has as its system patients and healthy volunteers. Particulars: over 800 patients and healthy volunteers; cited from earlier work.
The next data set has as its system animal disease models. The conditions noted are these: cited from earlier work.
Data set [2] in a line: Saturation concentration of elafibranor in the crystallization solvent. The format is physicochemical. Particulars: room temperature.
For data set [3] the following is noted: up to 2-year carcinogenicity studies; cited from earlier work.

Regarding `CSc1ccc(C(=O)/C=C/c2cc(C)c(OC(C)(C)C(=O)O)c(C)c2)cc1` [Elafibranor, 2-(2,6-dimethyl-4-{3-[4-(methylsulfanyl)phenyl]-3-oxopropen-1-yl}phenoxy)-2-methylpropanoic acid], in data set [1], the HDL-C levels entry is given as “increase”; the “insulin sensitivity and glucose homeostasis” value was “improvement”; the “markers of liver dysfunction, including ALAT, ASAT, γGT, ALP” value was “improvement”; the “plasma triglycerides and LDL-C” value was “decrease”. The “histological NASH parameters (steatosis, inflammation, fibrosis)” value in the data set with animal disease models is reported as “efficacy”. Also, in data set [2] (N,N-dimethylacetamide), the “saturation concentration of elafibranor in the solvent” value (“saturation concentration” below) is given as 11.9 mg/mL. Also, in data set [2] (ethanol), the “saturation concentration” value was 28.7 mg/mL. In data set [2] (methanol), the “saturation concentration” value is given as 17.7 mg/mL. The “safety in full toxicological package” value in data set [3] is listed as “absence of safety concern”.
